Source: ChEMBL document CHEMBL1144970, “Protective effects of steroid saponins from Paris polyphylla var. yunnanensis on ethanol- or indomethacin-induced gastric mucosal lesions in rats: structural requirement for activity and mode of action” (Bioorg Med Chem Lett, 2003)

How the values were obtained:
Rattus norvegicus [1] = assay: pH of the gastric juice (control value = 1.39+/-0.02) of stomach content of pylorus ligated rats was measured (2.5 mg/kg po of the Compound was administered 1 hr before the pylorus ligation); format: ADME, organism-based; details: in vivo
Rattus norvegicus [2] = assay: pH of the gastric juice (control value = 1.39+/-0.02) of stomach content of pylorus ligated rats was measured (5 mg/kg po of the Compound was administered 1 hr before the pylorus ligation); format: ADME, organism-based; details: in vivo
Rattus norvegicus [3] = assay: Acid output from the stomach (control value = 120.3+/-11.1) in pylorus ligated rats (2.5 mg/kg po of the Compound was administered 1 hr before the pylorus ligation); format: functional
Rattus norvegicus [4] = assay: Acid output from the stomach (control value = 120.3+/-11.1) in pylorus ligated rats (5 mg/kg po of the Compound was administered 1 hr before the pylorus ligation); format: functional
Rattus norvegicus [5] = assay: Percent inhibition of gastric lesions (length = 110+/-8.4) induced by ethanol was measured, after administration of 2.5 mg/kg po in NEM-pretreated rats; format: functional; details: Stomach
Rattus norvegicus [6] = assay: Percent inhibition of gastric lesions (length = 126.6+/-16.9) induced by ethanol was measured, after administration of 5 mg/kg po in endomethacin pretreated r rats; format: functional; details: Stomach
Rattus norvegicus [7] = assay: Percent inhibition of gastric lesions (length = 24.9 +/-3.6) induced by ethanol was measured, after administration of 5 mg/kg po in rats; format: functional; details: Stomach
Rattus norvegicus [8] = assay: Percent inhibition of gastric lesions (length = 34.3+/-5.5) induced by ethanol was measured, after administration of 2.5 mg/kg po in rats; format: functional; details: Stomach
Rattus norvegicus [9] = assay: Percent inhibition of gastric lesions (length = 50+/-9.9) induced by ethanol was measured, after administration of 5 mg/kg po in l-NAME-pretreated rats; format: functional; details: Stomach
Rattus norvegicus [10] = assay: Percent inhibition of gastric lesions (length = 92.8+/-8) induced by ethanol was measured, after administration of 2.5 mg/kg po in l-NAME-pretreated rats; format: functional; details: Stomach
Rattus norvegicus [11] = assay: Percent inhibition of gastric lesions induced by ethanol was measured, after administration of 1.25 mg/kg po in rats; format: functional; details: Stomach
Rattus norvegicus [12] = assay: Percent inhibition of gastric lesions induced by ethanol was measured, after administration of 2.5 mg/kg po in rats; format: functional; details: Stomach
Rattus norvegicus [13] = assay: Percent inhibition of gastric lesions induced by ethanol was measured, after administration of 5 mg/kg po in l-NAME-pretreated rats; format: functional; details: Stomach
Rattus norvegicus [14] = assay: Percent inhibition of gastric lesions induced by ethanol was measured, after administration of 5 mg/kg po in rats; format: functional; details: Stomach
Rattus norvegicus [15] = assay: Percent inhibition of gastric lesions induced by endomethacin was measured, after administration of 1.25 mg/kg po in rats; format: functional; details: Stomach
Rattus norvegicus [16] = assay: Percent inhibition of gastric lesions induced by endomethacin was measured, after administration of 2.5 mg/kg po in rats; format: functional; details: Stomach
Rattus norvegicus [17] = assay: Percent inhibition of gastric lesions induced by endomethacin was measured, after administration of 5 mg/kg po in rats; format: functional; details: Stomach
Rattus norvegicus [18] = assay: Reduction in length (control value = 152.9+/-9.7) of gastric lesions induced by ethanol was measured, after administration of 2.5 mg/kg po in Indomethacin-pretreated rats; format: functional, Stomach
Rattus norvegicus [19] = assay: Reduction in length (control value = 152.9+/-9.7) of gastric lesions induced by ethanol was measured, after administration of 5 mg/kg po in Indomethacin-pretreated rats; format: functional, Stomach
Rattus norvegicus [20] = assay: Reduction in length (control value = 141+/-14.3) of gastric lesions induced by ethanol was measured, after administration of 1.25 mg/kg po in rats; format: functional, Stomach
Rattus norvegicus [21] = assay: Reduction in length (control value = 141+/-14.3) of gastric lesions induced by ethanol was measured, after administration of 2.5 mg/kg po in rats; format: functional, Stomach
Rattus norvegicus [22] = assay: Reduction in length (control value = 141+/-14.3) of gastric lesions induced by ethanol was measured, after administration of 5 mg/kg po in rats; format: functional, Stomach
Rattus norvegicus [23] = assay: Reduction in length (control value = 190.1+/-9.3) of gastric lesions induced by endomethacin was measured, after administration of 2.5 mg/kg po L-NAME-pretreated in rats; format: functional, Stomach
Rattus norvegicus [24] = assay: Reduction in length (control value = 190.1+/-9.3) of gastric lesions induced by endomethacin was measured, after administration of 5 mg/kg po L-NAME-pretreated in rats; format: functional, Stomach
Rattus norvegicus [25] = assay: Reduction in length (control value = 206.7+/-6.3) of gastric lesions induced by endomethacin was measured, after administration of 2.5 mg/kg po NEM-pretreated in rats; format: functional, Stomach
Rattus norvegicus [26] = assay: Reduction in length (control value = 206.7+/-6.3) of gastric lesions induced by endomethacin was measured, after administration of 5 mg/kg po NEM-pretreated in rats; format: functional, Stomach
Rattus norvegicus [27] = assay: Reduction in length (control value = 70.4+/-2.3) of gastric lesions induced by endomethacin was measured, after administration of 1.25 mg/kg po in rats; format: functional, Stomach
Rattus norvegicus [28] = assay: Reduction in length (control value = 70.4+/-2.3) of gastric lesions induced by endomethacin was measured, after administration of 5 mg/kg po in rats; format: functional, Stomach
Rattus norvegicus [29] = assay: Volume of the gastric juice (control value = 4.7+/-.3) of stomach content of pylorus ligated rats was measured (5 mg/kg po of the Compound was administered 1 hr before the pylorus ligation); format: functional
Rattus norvegicus [30] = assay: Volume of the gastric juice (control value = 4.7+/-.3) of stomach content of pylorus ligated rats was measured(2.5 mg/kg po of the Compound was administered 1 hr before the pylorus ligation); format: functional
Rattus norvegicus [31] = assay: Percent inhibition of gastric lesions (length = 139.3+/-11.2) induced by ethanol was measured, after administration of 2.5 mg/kg po in endomethacin pretreated rats; format: functional; details: Stomach
Rattus norvegicus [32] = assay: Reduction in length (control value = 70.4+/-2.3) of gastric lesions induced by endomethacin was measured, after administration of 2.5 mg/kg po in rats; format: functional, Stomach

## CC1CC[C@@]2(OC1)OC1C[C@H]3[C@@H]4CC=C5C[C@@H](O[C@@H]6O[C@H](CO)[C@@H](O[C@@H]7O[C@@H](CO)[C@H](O)[C@H]7O)[C@H](O)[C@H]6O[C@@H]6O[C@@H](C)[C@H](O)[C@@H](O)[C@H]6O)CC[C@]5(C)[C@H]4CC[C@]3(C)[C@@]1(O)[C@@H]2C (some centres not stated)
Rattus norvegicus [1]
  pH: 1.41
Rattus norvegicus [2]
  pH: 1.41
Rattus norvegicus [3]
  Acid output: 98.5 u equiv hr-1
Rattus norvegicus [4]
  Acid output: 71.8 u equiv hr-1
Rattus norvegicus [5]
  inhibition in vivo at 2.5 mg/kg: 46.8%
Rattus norvegicus [6]
  inhibition in vivo at 5 mg/kg: 17.2%
Rattus norvegicus [7]
  inhibition in vivo at 5 mg/kg: 81.7%
Rattus norvegicus [8]
  inhibition in vivo at 2.5 mg/kg: 74.8%
Rattus norvegicus [9]
  inhibition in vivo at 5 mg/kg: 73.7%
Rattus norvegicus [10]
  inhibition in vivo at 2.5 mg/kg: 51.2%
Rattus norvegicus [11]
  inhibition in vivo at 1.25 mg/kg: 48.5%
Rattus norvegicus [12]
  inhibition in vivo at 2.5 mg/kg: 82.9%
Rattus norvegicus [13]
  inhibition in vivo at 5 mg/kg: 69.5%
Rattus norvegicus [14]
  inhibition in vivo at 5 mg/kg: 93.7%
Rattus norvegicus [15]
  inhibition in vivo at 1.25 mg/kg: 50.4%
Rattus norvegicus [16]
  inhibition in vivo at 2.5 mg/kg: 57%
Rattus norvegicus [17]
  inhibition in vivo at 5 mg/kg: 70.2%
Rattus norvegicus [18]
  Length: 139 mm
Rattus norvegicus [19]
  Length: 127 mm
Rattus norvegicus [20]
  Length: 72.6 mm
Rattus norvegicus [21]
  Length: 24.1 mm
Rattus norvegicus [22]
  Length: 8.9 mm
Rattus norvegicus [23]
  Length: 92.8 mm
Rattus norvegicus [24]
  Length: 50 mm
Rattus norvegicus [25]
  Length: 110 mm
Rattus norvegicus [26]
  Length: 63 mm
Rattus norvegicus [27]
  Length: 34.9 mm
Rattus norvegicus [28]
  Length: 21 mm
Rattus norvegicus [29]
  Volume: 3.3 ml 4hr-1
Rattus norvegicus [30]
  Volume: 4.1 ml 4hr-1
Rattus norvegicus [31]
  inhibition in vivo at 2.5 mg/kg: 8.9%
Rattus norvegicus [32]
  Length: 30.3 mm
